A short description of this assay: Growth inhibition in human NCI60 cells. It is filed as functional. The settings on record: for TGI: read-out: Log TGI (converted).

As for `COC(=O)CCC(=O)C1=C(C)/C(=C/c2[nH]c(-c3ccc[nH]3)cc2OC)N=C1C`, the GI50 is 0.794 µM, the LC50 was 12.3 µM and the TGI is 3.24 µM.
Consider `COC(=O)CCCCC(=O)C1=C(C)/C(=C/c2[nH]c(-c3ccc[nH]3)cc2OC)N=C1C`, for which the GI50 is 0.646 µM, the LC50 is 6.46 µM and the TGI is 2.24 µM.
The matching figures for `CCc1c(-c2ccc[nH]2)[nH]c(/C=C2\N=C(C)C(C(=O)CCCCC(=O)OC)=C2C)c1C`: 9.33 µM, 83.2 µM and 33.9 µM.
Turning to `COC(=O)CCCCCCCCC(=O)C1=C(C)/C(=C/c2[nH]c(-c3ccc[nH]3)cc2OC)N=C1C`, the GI50 is 16.2 µM, the LC50 is 95.5 µM and the TGI is 67.6 µM.
In the case of `COc1cc(-c2ccc[nH]2)[nH]c1/C=C1\N=C(C)C(C(C)=O)=C1C` [PRODIGIOSIN5], the GI50 was 0.708 µM, the LC50 was 89.1 µM and the TGI is 40.7 µM.
As for `CCOC(=O)C1=C(C)/C(=C/c2[nH]c(-c3ccc[nH]3)cc2OC)N=C1C` [PRODIGIOSIN 4], it took 0.0468 µM to inhibit growth by half (GI50), the LC50 is 12.3 µM and the TGI is 1.1 µM.
`CCCCCC1=C/C(=C/c2[nH]c(-c3ccc[nH]3)cc2OC)N=C1C` [PRODIGIOSIN CHLORIDE]: the GI50 was 0.0141 µM and the TGI is 2.09 µM.

For orientation: GI50 means the concentration that inhibits growth by half. Low values mean more potent growth inhibition, high ones less potent growth inhibition. What is called LC50 is the concentration lethal to half of the exposed cells or organisms. A low value points to a more lethal substance. The term TGI denotes the concentration at which net growth stops.

Source of the values: ChEMBL document CHEMBL1142989, “Synthesis and anti-cancer activity of C-ring-functionalized prodigiosin analogues” (2007).
